Reference: US20190151312A1, “HEPARAN SULFATE BIOSYNTHESIS INHIBITORS FOR THE TREATMENT OF DISEASES” (BioMarin Pharmaceutical Inc., priority 2014, published 2019)

What follows are compounds tested on GM01896 cells (MPS II dermal fibroblasts) (assay: Assay 1: MPS cellular assay, MPS II (heparan sulfate disaccharide biomarkers by LC-MS)). Details: Homo sapiens, Fibroblast, Assay 1 for MPS II, heparan sulfate disaccharide biomarkers (I2a4, I2a6, I2S0 and/or I2S6), read-out: IC50 Range.
Format: cell-based, human
Outline: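 MPS II patient dermal fibroblasts (GM01896) treated with compound at ≤30 μM for 4 to 21 days. Heparan sulfate GAGs isolated by anion exchange, digested with heparinases I-III, aniline-tagged against [13C6]aniline standards and quantified by LC-MS; IC50 from curve fitting. Viability monitored by alamar blue or ATP.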
With COC(=O)c1ccc(Nc2cc(-c3ccc4cnn(CCCN5CCOCC5)c4c3)nc(N3CCOCC3)n2)cc1 [methyl 4-({2-morpholin-4-yl-6-[1-(3-morpholin-4-ylpropyl)(1H-indazol-6-yl)]pyrimidin-4-yl}amino)benzoate] the IC50 was 500 to 1000 nM. COCCn1ncc2ccc(-c3cc(Nc4ccc(C(=O)OC)cc4)nc(N4CCOCC4)n3)cc21 [methyl 4-({6-[1-(2-methoxyethyl)(1H-indazol-6-yl)]-2-morpholin-4-ylpyrimidin-4-yl}amino)benzoate] showed an IC50 of 500 to 1000 nM. For COCCn1cnc2ccc(-c3cc(Nc4ccc(C(=O)OC)cc4)nc(N4CCOCC4)n3)cc21 [methyl 4-({6-[1-(2-methoxyethyl)benzimidazol-6-yl]-2-morpholin-4-ylpyrimidin-4-yl}amino)benzoate], the IC50 was < 500 nM. COC(=O)c1ccc(Nc2cc(-c3ccc4cnn(C)c4c3)nc(N3CCOCC3)n2)cc1 [methyl 4-{[6-(1-methyl(1H-indazol-6-yl))-2-morpholin-4-ylpyrimidin-4-yl]amino}benzoate] was tested, and the IC50 was 1000 to 5000 nM. In the case of CNS(=O)(=O)c1ccc(Nc2cc(-c3ccc4cnn(C)c4c3)nc(N3CCOCC3)n2)cc1 [methyl[(4-{[6-(1-methyl(1H-indazol-6-yl))-2-morpholin-4-ylpyrimidin-4-yl]amino}phenyl)sulfonyl]amine], the IC50 is reported as 1000 to 5000 nM. CN(C)CCNc1nn(C)c2cc(-c3cc(Nc4ccc(Cl)cc4)nc(N4CCOCC4)n3)ccc12 [{2-[(6-{6-[(4-chlorophenyl)amino]-2-morpholin-4-ylpyrimidin-4-yl}-1-methyl(1H-indazol-3-yl))amino]ethyl}dimethylamine] was tested, and the IC50 was 500 to 1000 nM. With CNC(=O)c1ccc(Nc2cc(-c3ccc4cnn(CCN(C)C)c4c3)nc(N3CCOCC3)n2)cc1 [{4-[(6-{1-[2-(dimethylamino)ethyl](1H-indazol-6-yl)}-2-morpholin-4-ylpyrimidin-4-yl)amino]phenyl}-N-methylcarboxamide] the IC50 was 500 to 1000 nM. With CNC(=O)c1ccc(Nc2cc(-c3ccc4c(c3)ncn4CCN(C)C)nc(N3CCOCC3)n2)cc1 [{4-[(6-{1-[2-(dimethylamino)ethyl]benzimidazol-5-yl}-2-morpholin-4-ylpyrimidin-4-yl)amino]phenyl}-N-methylcarboxamide] the IC50 was 1000 to 5000 nM. In the case of CNC(=O)c1ccc(Nc2cc(-c3ccc4ncn(CCN(C)C)c4c3)nc(N3CCOCC3)n2)cc1 [{4-[(6-{1-[2-(dimethylamino)ethyl]benzimidazol-6-yl}-2-morpholin-4-ylpyrimidin-4-yl)amino]phenyl}-N-methylcarboxamide], the IC50 is reported as < 500 nM. For CNC(=O)c1ccc(Nc2cc(-c3ccc4ncn(CCCN(C)C)c4c3)nc(N3CCOCC3)n2)cc1 [{4-[(6-{1-[3-(dimethylamino)propyl]benzimidazol-6-yl}-2-morpholin-4-ylpyrimidin-4-yl)amino]phenyl}-N-methylcarboxamide], the IC50 was 1000 to 5000 nM. In the case of CNC(=O)c1ccc(Nc2cc(-c3ccc4cn(CCN(C)C)nc4c3)nc(N3CCOCC3)n2)cc1 [{4-[(6-{2-[2-(dimethylamino)ethyl](2H-indazol-6-yl)}-2-morpholin-4-ylpyrimidin-4-yl)amino]phenyl}-N-methylcarboxamide], the IC50 is reported as < 500 nM. Work on CNC(=O)c1ccc(Nc2cc(-c3ccc4[nH]ncc4c3)nc(N3CCOCC3)n2)cn1 [{5-[(6-(1H-indazol-5-yl)-2-morpholin-4-ylpyrimidin-4-yl)amino](2-pyridyl)}-N-methylcarboxamide] yielded an IC50 of 500 to 1000 nM. CNC(=O)c1ccc(Nc2cc(-c3ccc4cn[nH]c4c3)nc(N3CCOCC3)n2)cn1 [{5-[(6-(1H-indazol-6-yl)-2-morpholin-4-ylpyrimidin-4-yl)amino](2-pyridyl)}-N-methylcarboxamide] gave an IC50 of 500 to 1000 nM. Work on CNC(=O)c1ccc(Nc2cc(-c3ccc4nc[nH]c4c3)nc(N3CCOCC3)n2)cn1 [{5-[(6-benzimidazol-6-yl-2-morpholin-4-ylpyrimidin-4-yl)amino](2-pyridyl)}-N-methylcarboxamide] yielded an IC50 of 1000 to 5000 nM.
